Patent US10869900B2, “Composition and products comprising senescent cells for use in tissue regeneration” (QRSkin GmbH, priority 2015, dated 2020)

Tested on: Human primary keratinocyte BKB10002 cells
Test: Senescence induction by surfactant, β-Gal staining
Assay type: cell-based
Conditions: 2 uM NP40 for 14 days, EpiLife medium+S7 supplement, medium change every second day
Protocol: Human primary keratinocyte BKB10002 cells were treated with the surfactant NP40 in order to induce senescence. Cells were grown in EpiLife medium+S7 supplement without (control) or with 2 uM NP40 for 14 days with a medium change every second day. […] Protein concentrations in the supernatants of the cell cultures were quantified using the Bio-Plex® Multiplex Immunoassays or ELISA kits from BIO-RAD.

## NP40
  cells showing a positive β-Gal staining: 11%
